≈ marks a conversion by molar mass, not a printed value. Calls of active or inactive are those of the source. The rule behind the calls is not given here.
What was measured:
Aspergillus fumigatus = test: Antifungal activity against Aspergillus fumigatus KM 8001 assessed as fungal growth inhibition incubated for 72 hrs by broth microdilution method; assay type: functional
Candida albicans [1] = test: Antifungal activity against fluconazole-resistant Candida albicans 632 assessed as reduction in fungal growth incubated for 72 hrs by broth microdilution method; assay type: functional
Candida albicans [2] = test: Induction of apoptosis in Candida albicans ATCC SC5314 assessed as viable cells by V-FITC/PI staining based flow cytometric analysis (reference value: 93.3%); assay type: functional
Candida albicans [3] = test: Induction of apoptosis in Candida albicans ATCC SC5314 assessed as early apoptotic cells by V-FITC/PI staining based flow cytometric analysis (reference value: 3.51%); assay type: functional
Candida albicans [4] = test: Induction of apoptosis in Candida albicans ATCC SC5314 assessed as necrotic cells by V-FITC/PI staining based flow cytometric analysis (reference value: 2.74%); assay type: functional
Candida albicans [5] = test: Fungicidal activity against Candida albicans ATCC SC5314 assessed as dead cells (reference value: 8%); assay type: functional
Candida albicans [6] = test: In vivo antifungal activity against Candida albicans 901 infected in mouse model assessed as expansion of alveolar spaces in lung at 5 microg/g, iv pre-infected with fungi by intravenous injection followed by compound administration and measured on day 8 by H and E staining based analysis; assay type: functional, organism-based; settings: dose 5.0 µg/g, time 8.0 day
Candida albicans [7] = test: (§1) In vivo antifungal activity against Candida albicans 901 infected in mouse model assessed as decrease in IL-2 protein expression level at 5 microg/g, iv pre-infected with fungi by intravenous injection followed by compound administration and measured on day 8 by Western blotting analysis; assay type: functional, organism-based; settings: dose 5.0 µg/g, time 8.0 day
Candida albicans [8] = test: as §1, with “8 in presence of BPE” for “8”; assay type: functional, organism-based; settings: dose 5.0 µg/g, time 8.0 day
Candida albicans [9] = test: as §1, with “IFN-gamma” for “IL-2”, “8 in presence of 1-MT” for “8”; assay type: functional, organism-based; settings: dose 5.0 µg/g, time 8.0 day
Candida albicans [10] = test: (§2) In vivo antifungal activity against Candida albicans 901 infected in mouse model assessed as decrease in PD-L1 protein expression level at 5 microg/g, iv pre-infected with fungi by intravenous injection followed by compound administration and measured on day 8 by Western blotting analysis; assay type: functional, organism-based; settings: dose 5.0 µg/g, time 8.0 day
Candida albicans [11] = test: as §2, with “8 in presence of BPE” for “8”; assay type: functional, organism-based; settings: dose 5.0 µg/g, time 8.0 day
Candida albicans [12] = test: as §1, with “IDO” for “IL-2”, “8 in presence of BPE” for “8”; assay type: functional, organism-based; settings: dose 5.0 µg/g, time 8.0 day
Candida albicans [13] = test: In vivo antifungal activity against Candida albicans 901 infected in mouse model assessed as increase in CD4positive expression level in presence of BPE; assay type: functional, organism-based
[14] = Toxicity in mouse infected with Candida albicans 901 assessed as change in ALT level (reference value: 42.8 +/-3.9 IU/L); settings: in vivo
[15] = Toxicity in mouse infected with Candida albicans 901 assessed as change in ALT level in presence of BPE (reference value: 42.8 +/-3.9 IU/L); settings: in vivo
[16] = Toxicity in mouse infected with Candida albicans 901 assessed as change in BUN level in presence of BPE (reference value: 11.4 +/-1.5 mmol/L); settings: in vivo

O=C(CNC(=O)c1nc2ccc(Cl)cc2c(=O)[nH]1)NCC(=O)c1ccccc1
MIC50 (Aspergillus fumigatus): 2 µg/mL (≈ 5.01 µM)
MIC50 (Candida albicans [1]): 2 µg/mL (≈ 5.01 µM)
Activity (Candida albicans [2]): 57.1%
Activity (Candida albicans [3]): 14.9%
Activity (Candida albicans [4]): 15.9%
Activity (Candida albicans [5]): 97%
Activity (Candida albicans [6]): Active
Activity (Candida albicans [7]): Active
Activity (Candida albicans [8]): Active
Activity (Candida albicans [9]): Active
Activity (Candida albicans [10]): Active
Activity (Candida albicans [11]): Active
Activity (Candida albicans [12]): Active
Activity (Candida albicans [13]): Active
Activity [14]: 33.6 IU/L
Activity [15]: 43.6 IU/L
Activity [16]: 9.5 mmol/L
